Laboratory results reported in PMC11809415 (The Journal of Cell Biology, 2025).
“Also recorded” adds a separate entry of the source.

Key:
[1] = system: actin (ADP-ribosylation by TcART, Photorhabdus luminescens); test: ADP-ribosylation of actin by TcART in presence of actin-binding peptides; format: biochemical, rabbit skeletal muscle α-actin; conditions: for ADP-ribosylation level: relative to no peptide = 1, […] actin, 314 pM TcART, 10 min 37°C
Method: (§1) Rabbit skeletal muscle α-actin was purified from muscle acetone powder (Pel-Freez Biologicals) as described in [Merino et al. (2018)] and stored in 50 μl aliquots at −70°C.
TcART, the ADP-ribosyltransferase from P. luminescens Tc toxin, was purified from E. coli BL21-CodonPlus(DE3)-RIPL harboring the plasmid pB656 as described previously ([Belyy et al., 2022]).
A total of 8-μl mixtures of 2 μg (4.8 μM final concentration) actin and actin-binding peptides at specified concentrations were preincubated for 5 min at room temperature in the buffer containing 1 mM NAD, 20 mM Tris pH 8, 150 mM NaCl, and 1 mM MgCl2. The ADP ribosylation reaction was initiated by the addition of 0.2 ng (314 pM) of TcART to the mixture. After 10 min of incubation at 37°C, the reaction was stopped by adding Laemmli sample buffer and heating the sample at 95°C for 5 min. The components of the mixture were separated by SDS-PAGE, blotted onto a polyvinylidene difluoride (PVDF) membrane using a Trans-Blot Turbo Transfer System (Bio-Rad), and visualized using a combination of the His-tagged ADP-ribose binding protein at the concentration of 0.01 mg/ml and HisProbe-HRP conjugate. The level of actin ADP-ribosylation was quantified by densitometry using ImageJ.

F-actin [2] = test: Actin bundling assay using low-speed centrifugation (10,000 g); format: biochemical, rabbit skeletal muscle α-actin; conditions: for F-actin in the pellet: 10 μM actin filaments, 5 min RT, 10,000 g
Method: as §1
8 μl of actin filaments at 10 μM were mixed with peptides at the specified concentration, incubated for 5 min at room temperature, and spun down at 10,000 g for 10 min at 4°C. Aliquots of the supernatant and resuspended pellet fractions were separated on SDS-polyacrylamide gels with 2,2,2-trichloroethanol ([Ladner-Keay et al., 2018]) and visualized with ultraviolet light.

U-2 OS cells [3] = test: Nuclear signal enrichment in U-2 OS cells; format: cell-based, human; conditions: EGFP fusions
[4] = system: U-2 OS cells (actin fibers); test: Signal-to-noise ratio (fibers/cytosol) in U-2 OS cells; format: cell-based, human; conditions: EGFP fusions, compared with WT F-tractin
U-2 OS cells [5] = test: FRAP recovery half time in U-2 OS cells; format: cell-based, human; conditions: EGFP fusions
F-actin [6] = test: High-speed cosedimentation with F-actin (120,000 g), SDS-PAGE densitometry; format: binding, rabbit skeletal muscle α-actin; conditions: 2 μM mCherry fusion
Method: as §1
A single colony was inoculated into 200 ml of LB media and grown at 37°C. At OD600 0.6–1.0, protein expression was induced by the addition of IPTG to a final concentration of 0.02 mM. After 16 h of expression at 22°C, the cells were harvested by centrifugation, resuspended in TBS (20 mM Tris pH 8 and 150 mM NaCl), and lysed by sonication. The soluble fraction was applied on TBS-equilibrated Protino Ni-IDA resin (Macherey-Nagel), washed, eluted with TBS supplemented with 250 mM imidazole, dialyzed against TBS, and stored at −20°C.
Freshly thawed mammalian α-actin was spun down at 120,000 g for 20 min at 4°C using a TLA-120.1 rotor, and the supernatant containing G-actin was collected. The protein was then polymerized by incubation in F buffer (120 mM KCl, 20 mM Tris pH 8, 2 mM MgCl2, 1 mM DTT, and 1 mM ATP) for 2 h on ice. Cosedimentation assays were performed in 20 μl volumes by first incubating F-actin with F-tractinopt-mCherry fusions for 5 min at room temperature and then centrifuging at 120,000 g using the TLA-120.1 rotor for 20 min at 4°C. After centrifugation, aliquots of the supernatant and resuspended pellet fractions were separated on SDS-polyacrylamide gels with 2,2,2-trichloroethanol ([Ladner-Keay et al., 2018]), visualized under ultraviolet light, and analyzed by densitometry using ImageJ (RRID:SCR_003070). The Kd values were calculated using GraphPad Prism software (RRID:SCR_002798).

For “APRRSVGELRLLFEARAASAA [F-tractinopt, optimized F-tractin peptide; mCherry fusion in cosedimentation, EGFP fusion in cells]”, the ADP-ribosylation level ([1]; peptide 1 µM, Repeat 1) was 1,245716, the ADP-ribosylation level ([1]; peptide 1 µM, Repeat 2) was 0,95033 and the ADP-ribosylation level ([1]; peptide 1 µM, Repeat 3) was 1,419998. The ADP-ribosylation level ([1]; peptide 3 µM, Repeat 1) was 1,210256, the ADP-ribosylation level ([1]; peptide 3 µM, Repeat 2) was 1,296322 and the ADP-ribosylation level ([1]; peptide 3 µM, Repeat 3) was 1,29383. The ADP-ribosylation level ([1]; peptide 10 µM, Repeat 1) was 0,846657, the ADP-ribosylation level ([1]; peptide 10 µM, Repeat 2) was 0,728925 and the ADP-ribosylation level ([1]; peptide 10 µM, Repeat 3) was 1,078508. For the same sequence, the ADP-ribosylation level ([1]; peptide 30 µM, Repeat 1) was 0,320904, the ADP-ribosylation level ([1]; peptide 30 µM, Repeat 2) was 0,220558 and the ADP-ribosylation level ([1]; peptide 30 µM, Repeat 3) was 0,140877. For the same sequence, the ADP-ribosylation level ([1]; peptide 100 µM, Repeat 1) was 0,032604, the ADP-ribosylation level ([1]; peptide 100 µM, Repeat 2) was 0,100767 and the ADP-ribosylation level ([1]; peptide 100 µM, Repeat 3) was 0,002262. The “effect on TcART modification of F-actin (in words)” value ([1]; peptides up to 100 µM) was “inhibited TcART activity in a similar dose-dependent manner”, the “actin bundling (in words)” value (F-actin [2]; in vitro, up to 100 µM, low-speed centrifugation and cryo-EM) was “minimal actin bundling” and the “F-actin in the pellet” value (F-actin [2]; peptide 1 µM, Repeat 1) was 0,098435. The “F-actin in the pellet” value (F-actin [2]; peptide 1 µM, Repeat 2) was 0,057915, the “F-actin in the pellet” value (F-actin [2]; peptide 1 µM, Repeat 3) was 0,103265 and the “F-actin in the pellet” value (F-actin [2]; peptide 100 µM, Repeat 1) was 0,099007. For the same sequence, the “F-actin in the pellet” value (F-actin [2]; peptide 100 µM, Repeat 2) was 0,095989, the “F-actin in the pellet” value (F-actin [2]; peptide 100 µM, Repeat 3) was 0,158954 and the “F-actin in the pellet” value (F-actin [2]; peptide 1000 µM, Repeat 1) was 0,238373. The “F-actin in the pellet” value (F-actin [2]; peptide 1000 µM, Repeat 2) was 0,117922, the “F-actin in the pellet” value (F-actin [2]; peptide 1000 µM, Repeat 3) was 0,212762 and the “nuclear enrichment (in words)” value (U-2 OS cells [3]) was “slightly higher accumulation of F-tractinopt in the nucleus”. The “signal-to-noise ratio between actin fibers and cytosol (in words)” value [4] was “behave very similarly (no”, the “exchange / recovery in FRAP (in words)” value (U-2 OS cells [5]) was “exchanged faster than WT F-tractin; also recorded: FRAP recovery rates” and the Fraction bound (F-actin [6]; F-actin 2 µM, Repeat 1) was 0,113982. The Fraction bound (F-actin [6]; F-actin 2 µM, Repeat 2) was 0,125633, the Fraction bound (F-actin [6]; F-actin 2 µM, Repeat 3) was 0,150215 and the Fraction bound (F-actin [6]; F-actin 5 µM, Repeat 1) was 0,211009. For the same sequence, the Fraction bound (F-actin [6]; F-actin 5 µM, Repeat 2) was 0,27957, the Fraction bound (F-actin [6]; F-actin 5 µM, Repeat 3) was 0,318841 and the Fraction bound (F-actin [6]; F-actin 10 µM, Repeat 1) was 0,480176. For the same sequence, the Fraction bound (F-actin [6]; F-actin 10 µM, Repeat 2) was 0,433657, the Fraction bound (F-actin [6]; F-actin 10 µM, Repeat 3) was 0,418605 and the Fraction bound (F-actin [6]; F-actin 20 µM, Repeat 1) was 0,569748. For the same sequence, the Fraction bound (F-actin [6]; F-actin 20 µM, Repeat 2) was 0,578018, the Fraction bound (F-actin [6]; F-actin 20 µM, Repeat 3) was 0,523474 and the Fraction bound (F-actin [6]; F-actin 40 µM, Repeat 1) was 0,557282. For the same sequence, the Fraction bound (F-actin [6]; F-actin 40 µM, Repeat 2) was 0,621935 and the Fraction bound (F-actin [6]; F-actin 40 µM, Repeat 3) was 0,643478.
